Read-outs that look alike come from different tables or passages of the source.
Target: T1, mouse TMEM16A mutant R515A (Mus musculus, UniProt Q8BHY3, R515A)
T1 construct: expressed in transfected cells; host or cells: HEK293T
T1 sequence (Q8BHY3 1-960 R515A): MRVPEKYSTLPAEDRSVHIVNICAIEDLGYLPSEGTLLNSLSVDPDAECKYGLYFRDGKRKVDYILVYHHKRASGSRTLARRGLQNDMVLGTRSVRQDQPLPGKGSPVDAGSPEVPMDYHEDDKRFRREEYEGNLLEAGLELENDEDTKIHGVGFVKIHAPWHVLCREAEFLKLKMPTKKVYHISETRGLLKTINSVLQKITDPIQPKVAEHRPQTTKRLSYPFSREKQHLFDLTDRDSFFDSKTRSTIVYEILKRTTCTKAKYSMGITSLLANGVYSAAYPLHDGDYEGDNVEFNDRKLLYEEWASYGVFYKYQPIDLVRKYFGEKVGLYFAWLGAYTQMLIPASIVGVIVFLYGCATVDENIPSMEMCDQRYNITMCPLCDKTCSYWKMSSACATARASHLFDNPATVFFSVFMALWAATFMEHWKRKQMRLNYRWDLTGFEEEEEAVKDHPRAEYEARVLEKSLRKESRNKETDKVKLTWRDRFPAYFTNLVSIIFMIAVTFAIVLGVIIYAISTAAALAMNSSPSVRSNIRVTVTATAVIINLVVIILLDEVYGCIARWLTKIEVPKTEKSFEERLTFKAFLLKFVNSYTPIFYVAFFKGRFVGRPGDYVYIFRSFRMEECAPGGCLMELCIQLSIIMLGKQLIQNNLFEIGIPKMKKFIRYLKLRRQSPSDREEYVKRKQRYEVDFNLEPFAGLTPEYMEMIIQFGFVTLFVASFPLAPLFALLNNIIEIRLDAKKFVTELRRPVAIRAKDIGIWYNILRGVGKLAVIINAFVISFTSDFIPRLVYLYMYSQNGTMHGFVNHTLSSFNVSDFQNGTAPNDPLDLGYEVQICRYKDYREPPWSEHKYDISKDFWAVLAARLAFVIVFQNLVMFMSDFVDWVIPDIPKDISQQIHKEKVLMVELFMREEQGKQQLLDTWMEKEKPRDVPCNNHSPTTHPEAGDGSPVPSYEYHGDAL
Experiment: Inside-out patch recording of 1PBC block, mutant R515A
Format: cell-based
Method: HEK293T cells (ATCC CRL-1573) were maintained in Dulbecco’s modified Eagle’s medium (DMEM; Sigma-Aldrich) supplemented with 10 U ml^−1 penicillin, 0.1 mg ml^−1 streptomycin (Sigma-Aldrich), 2 mM L-glutamine (Sigma-Aldrich), and 10% FBS (Sigma-Aldrich) in a humidified atmosphere containing 5% CO2 at 37 °C. HEK293S GnTI^− cells (ATCC CRL-3022) were maintained in HyClone HyCell TransFx-H medium (GE Healthcare) supplemented with 10 U ml^−1 penicillin, 0.1 mg ml^−1 streptomycin, 4 mM L-glutamine, 0.15% poloxamer 188 (Sigma-Aldrich), and 1% FBS in an atmosphere containing 5% CO2 at 185 rpm at 37 °C. The ac splice variant of mouse TMEM16A (UniProt ID: Q8BHY3), mouse TMEM16B (UniProt ID: Q8CFW1), or mouse TMEM16F (UniProt ID: Q6P9J9) bearing a 3C cleavage site, a Venus YFP, a Myc tag, and a Streptavidin-binding peptide (SBP) downstream of the open reading frame in a modified pcDNA3.1 vector (Invitrogen) were used as described previously[21],[31]. Mutations were introduced using a modified QuikChange method[58] and were verified by sequencing.
HEK293T cells were transfected with 3–4 μg DNA per 6 cm Petri dish using the calcium phosphate co-precipitation method and were used within 24–96 h after transfection. Recordings were performed on inside-out patches excised from HEK293T cells expressing the construct of interest. Patch pipettes were pulled from borosilicate glass capillaries (O.D. 1.5 mm, I.D. 0.86 mm, Sutter Instrument) and were fire-polished with a microforge (Narishige) before use. Pipette resistance was typically 3–8 MΩ when filled with the recording solutions detailed below. Seal resistance was typically 4 GΩ or higher. Voltage-clamp recordings were made using Axopatch 200B, Digidata 1550, and Clampex 10.7 (Molecular Devices). Analog signals were filtered with the in-built 4-pole Bessel filter at 10 kHz and were digitized at 20 kHz. Solution exchange was achieved using a gravity-fed system through a theta glass pipette mounted on an ultra-fast piezo-driven stepper (Siskiyou). […] All recordings were performed at 20 °C.
A symmetrical ionic condition was used throughout. Stock solution with Ca^2+-EGTA contained 150 mM NaCl, 5.99 mM Ca(OH)2, 5 mM EGTA, and 10 mM HEPES at pH 7.40. Stock solution with EGTA contained 150 mM NaCl, 5 mM EGTA, and 10 mM HEPES at pH 7.40. Free Ca^2+ concentrations were adjusted by mixing the stock solutions at the required ratios calculated using the WEBMAXC program (http://web.stanford.edu/~cpatton/webmaxcS.htm). Patch pipettes were filled with the stock solution with Ca^2+-EGTA, which has a free Ca^2+ concentration of 1 mM. 1PBC (ChemBridge) stock was reconstituted in anhydrous DMSO (Sigma-Aldrich) at 100 mM and stored at −20 °C. Working solutions with 1PBC were prepared by serial dilution. Unless otherwise stated, experiments were performed at a saturating Ca^2+ concentration as shown in Supplementary Table 1 and the primary data were corrected for current rundown as described previously[21],[25].
Concentration-response relations, obtained from the ratio of the I-V plots before and after the application of the blocker, were fitted to the Hill equation,1 I/Imax=1/1+IC50/[blocker]^h where I/Imax is the normalized current responses, IC50 defines the concentration at which inhibition is at its half-maximum, and h is the Hill coefficient.

IC50 (0 mV, 4 µM Ca2+): 120 µM
remaining activity at 10 µM (10 µM 1PBC, +80 mV, saturating Ca2+ (4 µM), read-out: I/Imax): 91.2%
remaining activity at 10 µM (10 µM 1PBC, -80 mV, saturating Ca2+ (4 µM), read-out: I/Imax): 93.3%
remaining activity at 30 µM (30 µM 1PBC, +80 mV, saturating Ca2+ (4 µM), read-out: I/Imax): 74.8%
remaining activity at 30 µM (30 µM 1PBC, -80 mV, saturating Ca2+ (4 µM), read-out: I/Imax): 86.5%
remaining activity at 100 µM (100 µM 1PBC, +80 mV, saturating Ca2+ (4 µM), read-out: I/Imax): 47.7%
remaining activity at 100 µM (100 µM 1PBC, -80 mV, saturating Ca2+ (4 µM), read-out: I/Imax): 61.6%
remaining activity at 10 µM (1PBC 10, 0 mV, read-out: fraction of unblocked current): 92.5%
remaining activity at 10 µM (1PBC 10, 20 mV, read-out: fraction of unblocked current): 92.3%
remaining activity at 10 µM (1PBC 10, 40 mV, read-out: fraction of unblocked current): 92.8%
remaining activity at 10 µM (1PBC 10, 60 mV, read-out: fraction of unblocked current): 91.6%
remaining activity at 10 µM (1PBC 10, 80 mV, read-out: fraction of unblocked current): 91.2%
remaining activity at 10 µM (1PBC 10, 100 mV, read-out: fraction of unblocked current): 93.9%
remaining activity at 10 µM (1PBC 10, 120 mV, read-out: fraction of unblocked current): 90.5%
remaining activity at 10 µM (1PBC 10, 140 mV, read-out: fraction of unblocked current): 93.5%
remaining activity at 10 µM (1PBC 10, -20 mV, read-out: fraction of unblocked current): 92.7%
remaining activity at 10 µM (1PBC 10, -40 mV, read-out: fraction of unblocked current): 91.8%
remaining activity at 10 µM (1PBC 10, -60 mV, read-out: fraction of unblocked current): 91.4%
remaining activity at 10 µM (1PBC 10, -80 mV, read-out: fraction of unblocked current): 93.3%
remaining activity at 10 µM (1PBC 10, -100 mV, read-out: fraction of unblocked current): 92.8%
remaining activity at 10 µM (1PBC 10, -120 mV, read-out: fraction of unblocked current): 91.8%
remaining activity at 10 µM (1PBC 10, -140 mV, read-out: fraction of unblocked current): 93.3%
remaining activity at 30 µM (1PBC 30, 0 mV, read-out: fraction of unblocked current): 79.3%
remaining activity at 30 µM (1PBC 30, 20 mV, read-out: fraction of unblocked current): 77.3%
remaining activity at 30 µM (1PBC 30, 40 mV, read-out: fraction of unblocked current): 75.6%
remaining activity at 30 µM (1PBC 30, 60 mV, read-out: fraction of unblocked current): 73.2%
remaining activity at 30 µM (1PBC 30, 80 mV, read-out: fraction of unblocked current): 74.8%
remaining activity at 30 µM (1PBC 30, 100 mV, read-out: fraction of unblocked current): 73.1%
remaining activity at 30 µM (1PBC 30, 120 mV, read-out: fraction of unblocked current): 70.9%
remaining activity at 30 µM (1PBC 30, 140 mV, read-out: fraction of unblocked current): 70%
remaining activity at 30 µM (1PBC 30, -20 mV, read-out: fraction of unblocked current): 81.4%
remaining activity at 30 µM (1PBC 30, -40 mV, read-out: fraction of unblocked current): 84%
remaining activity at 30 µM (1PBC 30, -60 mV, read-out: fraction of unblocked current): 84.5%
remaining activity at 30 µM (1PBC 30, -80 mV, read-out: fraction of unblocked current): 86.5%
remaining activity at 30 µM (1PBC 30, -100 mV, read-out: fraction of unblocked current): 87.5%
remaining activity at 30 µM (1PBC 30, -120 mV, read-out: fraction of unblocked current): 86.9%
remaining activity at 30 µM (1PBC 30, -140 mV, read-out: fraction of unblocked current): 85.6%
remaining activity at 100 µM (1PBC 100, 0 mV, read-out: fraction of unblocked current): 55%
remaining activity at 100 µM (1PBC 100, 20 mV, read-out: fraction of unblocked current): 53.1%
remaining activity at 100 µM (1PBC 100, 40 mV, read-out: fraction of unblocked current): 51%
remaining activity at 100 µM (1PBC 100, 60 mV, read-out: fraction of unblocked current): 49.1%
remaining activity at 100 µM (1PBC 100, 80 mV, read-out: fraction of unblocked current): 47.7%
remaining activity at 100 µM (1PBC 100, 100 mV, read-out: fraction of unblocked current): 46.8%
remaining activity at 100 µM (1PBC 100, 120 mV, read-out: fraction of unblocked current): 47.6%
remaining activity at 100 µM (1PBC 100, 140 mV, read-out: fraction of unblocked current): 48%
remaining activity at 100 µM (1PBC 100, -20 mV, read-out: fraction of unblocked current): 56.9%
remaining activity at 100 µM (1PBC 100, -40 mV, read-out: fraction of unblocked current): 59%
remaining activity at 100 µM (1PBC 100, -60 mV, read-out: fraction of unblocked current): 60.7%
remaining activity at 100 µM (1PBC 100, -80 mV, read-out: fraction of unblocked current): 61.6%
remaining activity at 100 µM (1PBC 100, -100 mV, read-out: fraction of unblocked current): 61.8%
remaining activity at 100 µM (1PBC 100, -120 mV, read-out: fraction of unblocked current): 62.9%
remaining activity at 100 µM (1PBC 100, -140 mV, read-out: fraction of unblocked current): 62.4%
IC50 (20 mV, 4 µM Ca2+): 110 µM
IC50 (40 mV, 4 µM Ca2+): 102 µM
IC50 (60 mV, 4 µM Ca2+): 92.1 µM
log-fold IC50 (change of mutant vs WT) (80 mV): 1.6299
IC50 (80 mV, 4 µM Ca2+): 91.4 µM
IC50 (100 mV, 4 µM Ca2+): 88.7 µM
IC50 (120 mV, 4 µM Ca2+): 84.4 µM
IC50 (140 mV, 4 µM Ca2+): 86.1 µM
IC50 (-20 mV, 4 µM Ca2+): 131 µM
IC50 (-40 mV, 4 µM Ca2+): 145 µM
IC50 (-60 mV, 4 µM Ca2+): 153 µM
IC50 (-80 mV, 4 µM Ca2+): 166 µM
IC50 (-100 mV, 4 µM Ca2+): 169 µM
IC50 (-120 mV, 4 µM Ca2+): 172 µM
IC50 (-140 mV, 4 µM Ca2+): 168 µM
IC50 (R515A, V 0 mV): 120 µM
IC50 (R515A, V 20 mV): 110 µM
IC50 (R515A, V 40 mV): 102 µM
IC50 (R515A, V 60 mV): 92.1 µM
IC50 (R515A, V 80 mV): 91.4 µM
IC50 (R515A, V 100 mV): 88.7 µM
IC50 (R515A, V 120 mV): 84.4 µM
IC50 (R515A, V 140 mV): 86.1 µM
IC50 (R515A, V -20 mV): 131 µM
IC50 (R515A, V -40 mV): 145 µM
IC50 (R515A, V -60 mV): 153 µM
IC50 (R515A, V -80 mV): 166 µM
IC50 (R515A, V -100 mV): 169 µM
IC50 (R515A, V -120 mV): 172 µM
IC50 (R515A, V -140 mV): 168 µM
SMILES: N#Cc1c(C(F)(F)F)cc(O)n2c1nc1ccccc12 [1PBC]
